# Measurements: patent US4156724A, “N-acylamino-alpha-arylacetamido cephalosporins and antibacterial compositions and methods containing them” (Sumitomo Chemical Company, Limited, priority 1974, dated 1979)
# Assays:
# Format in all cases: cell-based
# [1] = system: Staphylococcus aureus 209 P; experiment: Minimum Inhibitory Concentration, Staphylococcus aureus 209 P; settings: Staphylococcus aureus 209 P; read-out: Minimum Inhibitory Concentration
# Procedure: (§1) anti-microbial activity tests were carried out on the compounds obtained in the Examples.
# [2] = system: Staphylococcus aureus FS 289; experiment: Minimum Inhibitory Concentration, Staphylococcus aureus FS 289; settings: FS289; Staphylococcus aureus FS 289, strain resistant to penicillin; read-out: Minimum Inhibitory Concentration
# Procedure: as §1
# *Staphylococcus aureus FS 289: strain resistant to penicillin
# [3] = system: Pseudomonas aeruginosa 104; experiment: Minimum Inhibitory Concentration, Pseudomonas aeruginosa 104; settings: Pseudomonas aeruginosa 104; read-out: Minimum Inhibitory Concentration
# Procedure: as §1
# [4] = system: Enterobacter aerogeneus No. 75; experiment: Minimum Inhibitory Concentration, Enterobacter aerogeneus No. 75; settings: Enterobacter aerogeneus No. 75; read-out: Minimum Inhibitory Concentration
# Procedure: as §1
# [5] = system: Serratia No. 72; experiment: Minimum Inhibitory Concentration, Serratia No. 72
# Procedure: as §1
# [6] = system: Klebsiella pneumoniae 602; experiment: Minimum Inhibitory Concentration, Klebsiella pneumoniae 602; settings: Klebsiella pneumoniae, 602, Klebsiella pneumoniae 602; read-out: Minimum Inhibitory Concentration
# Procedure: as §1
# [7] = system: Escherichia coli NIHJ; experiment: Minimum Inhibitory Concentration, Escherichia coli NIHJ; settings: Escherichia coli NIHJ; read-out: Minimum Inhibitory Concentration
# Procedure: as §1
# [8] = system: Proteus vulgaris HX 19; experiment: Minimum Inhibitory Concentration, Proteus vulgaris HX 19; settings: HX19; Proteus vulgaris HX 19; read-out: Minimum Inhibitory Concentration
# Procedure: as §1
SMILES,MIC [1] [µg/mL],MIC [2] [µg/mL],MIC [3] [µg/mL],MIC [4] [µg/mL],MIC [5] [µg/mL],MIC [6] [µg/mL],MIC [7] [µg/mL],MIC [8] [µg/mL]
CSc1cnc2c(O)c(C(=O)NC(C(=O)NC3C(=O)N4C(C(=O)O)=C(CSc5nnnn5C)CSC34)c3cccc(NC(N)=O)c3)cnc2n1 (stereo not drawn) [Example 41],1.56,6.25,6.25,6.25,12.5,3.13,3.13,0.2
Cc1nc2ncc(C(=O)NC(C(=O)NC3C(=O)N4C(C(=O)O)=C(CSc5nnnn5C)CSC34)c3cccc(NC(N)=O)c3)c(O)c2nc1C (stereo not drawn) [Example 42],1.56,6.25,6.25,6.25,12.5,3.13,3.13,0.2
NC(=O)Nc1ccc(C(NC(=O)c2cnccc2O)C(=O)NC2C(=O)N3C(C(=O)O)=C(CSc4nnc(CO)s4)CSC23)cc1 (stereo not drawn) [Example 47],0.78,6.25,12.5,12.5,50,3.13,12.5,0.39
NC(=O)Nc1cccc(C(NC(=O)c2ccnnc2O)C(=O)NC2C(=O)N3C(C(=O)O)=C(CSc4nnc(CO)s4)CSC23)c1 (stereo not drawn) [Example 48],0.78,12.5,25,25,100,3.13,12.5,0.78
NC(=O)Nc1cccc(C(NC(=O)c2cccnc2O)C(=O)NC2C(=O)N3C(C(=O)O)=C(CSc4nnc(CO)s4)CSC23)c1 (stereo not drawn) [Example 49],0.78,12.5,25,25,50,6.25,12.5,0.78
"CC(=O)OCC1=C(C(=O)O)N2C(=O)C(NC(=O)[C@H](NC(=O)c3cnc4cccnc4c3O)c3ccc(N)cc3)C2SC1 (stereo partly drawn) [Example 50, 7-[D-α-(4-Hydroxy-1,5-naphthyridine-3-carboxyamido)-α-p-aminophenylacetamido]cephalosporanic Acid]",1.56,6.25,6.25,6.25,50,3.13,3.13,0.39

# Results, then the molecule that gave them:
MIC [1] [µg/mL],MIC [2] [µg/mL],MIC [3] [µg/mL],MIC [4] [µg/mL],MIC [5] [µg/mL],MIC [6] [µg/mL],MIC [7] [µg/mL],MIC [8] [µg/mL],SMILES
0.78,6.25,3.13,6.25,12.5,1.56,3.13,0.1,CSc1ccc2ncc(C(=O)N[C@@H](C(=O)N[C@@H]3C(=O)N4C(C(=O)O)=C(CSc5nnc(C)s5)CS[C@H]34)c3cccc(NC(N)=O)c3)c(O)c2n1 [Example 40]
0.78,6.25,6.25,6.25,12.5,3.13,6.25,0.39,Cn1nnnc1SCC1=C(C(=O)O)N2C(=O)C(NC(=O)C(NC(=O)c3cnc4sccc4c3O)c3cccc(NC(N)=O)c3)C2SC1 (stereo not drawn) [Example 43]
0.78,6.25,6.25,6.25,12.5,3.13,6.25,0.39,Cn1nnnc1SCC1=C(C(=O)O)N2C(=O)C(NC(=O)C(NC(=O)c3cnc4scnc4c3O)c3cccc(NC(N)=O)c3)C2SC1 (stereo not drawn) [Example 44]
0.39,6.25,12.5,12.5,50,3.13,12.5,0.39,NC(=O)Nc1cccc(C(NC(=O)c2cnccc2O)C(=O)NC2C(=O)N3C(C(=O)O)=C(CSc4nnc(CO)s4)CSC23)c1 (stereo not drawn) [Example 45]
0.78,6.25,12.5,12.5,50,3.13,12.5,0.39,NC(=O)Nc1cccc(C(NC(=O)c2cnccc2O)C(=O)NC2C(=O)N3C(C(=O)O)=C(CSc4ccc(O)nn4)CSC23)c1 (stereo not drawn) [Example 46]
0.39,3.13,6.25,25,> 200,12.5,12.5,0.2,"CC(=O)OCC1=C(C(=O)O)N2C(=O)C(NC(=O)[C@H](NC(=O)c3cnccc3O)c3cccc(N)c3)C2SC1 (stereo partly drawn) [Example 51, 7-[D-α-(4-Hydroxypyridine-3-carbonamide)-α -m-aminophenylacetamido]cephalosporanic acid]"
